# Assay results published in article PMC4336331, “Novel Receptor-Derived Cyclopeptides to Treat Heart Failure Caused by Anti-β1-Adrenoceptor Antibodies in a Human-Analogous Rat Model” (PLoS ONE, 2015).
# “Also recorded” adds a separate entry of the source. Where two headings read alike, the source gives them in different places. Peptide text beside a SMILES is read from it.
# What was measured:
# anti-β1EC2-antibodies = assay: Free anti-β1EC2-titers by ELISA, therapy-study; type: in vivo, Lewis/CrlBR rats; settings: for decline in anti-β1EC2-titers: 1.0 mg/kg i.v. every 4 weeks, irrespective of bisoprolol co-treatment (Fig. 2F)
# Method: (§1) In brief, n = 76 two months old Lewis/CrlBR rats were either s.c. immunised with 50 μg β1EC2/GST-FP, or n = 38 rats were control-injected with 0.9% NaCl (t = 0). To maintain high anti-β1EC2-titers, all immunised rats were boosted with β1EC2/GST-FP (or 0.9% NaCl) every month over 20 months as previously described. Application of the different linear or cyclic β1-AR peptides (corresponding to the primary AA-sequence of either the first (β1EC1) or the 2nd extra-cellular β1-AR loop (β1EC2)) or the β1-receptor blocker bisoprolol was initiated either 6 weeks after the 1st immunisation (i.e. 15 days after the 1st boost, prevention-study), or 8.5 months after the 1st immunisation (therapy-study).
# (TIF) Click here for additional data file.
# [1] = tested on: anti-β1EC2-induced heart failure (β1EC2/GST-FP-immunised rats); assay: Echocardiography and catheterisation, cardiomyopathic phenotype, therapy-study; type: in vivo, Lewis/CrlBR rats; settings: echocardiography and catheterisation (Fig. 2G, H; S2 Fig.)
# Method: as §1
# In brief, the rats were lightly anaestetised (30 mg/kg ketamine-HCl and 5 mg/kg xylazine i.p.), shaved (chest), and placed supine on a special table. M-mode tracings were recorded at baseline (before immunisation), and subsequently every four months in the parasternal long and short axis views according to the guidelines of the American Society for Echocardiography. Pulsed-wave Doppler spectra were recorded from the apical five-chamber view and the velocity-time integral (VTI) of the transaortic flow served to calculate cardiac output (CO [ml/min] = Aortic VTI x (π [LV-outflow tract diameter/2]^2) x bpm).
# [2] = tested on: anti-β1EC2-induced heart failure (β1EC2/GST-FP-immunised rats); settings: therapy-study, end of study, mean ±SEM
# Method: as §1
# From paraffin-embedded heart preparations cavity- and wall-dimensions were determined by computer-aided analysis of H&E-stained mid-ventricular 2μm-sections as previously described. H&E-stained paraffin-sections also served to quantify damaged and fibrotic cardiac areas (scars). For detection of mast cells, deparaffinised cardiac sections were stained with acidified (pH<2.5) toluidine blue 0.1% (Sigma). The number of toluidine-positive cells was normalized to square millimeter of cardiac tissue. TUNEL-positive cells were quantified in 2μm mid-ventricular paraffin-sections using a TMR Red in Situ Death Detection Kit (Roche, Basel, Switzerland). Only the total number of TUNEL-postive cells/section was determined without further differentiation of the specific apoptotic cell type (e.g., fibroblasts, endothelial cells, cardiomyocytes).
# [3] = tested on: anti-β1EC2-induced heart failure (β1EC2/GST-FP-immunised rats); assay: Left heart catheterisation (haemodynamics), therapy-study; type: in vivo, Lewis/CrlBR rats; settings: LV catheterisation month 20, mean ±SEM
# Method: as §1
# [4] = tested on: anti-β1EC2-induced heart failure (β1EC2/GST-FP-immunised rats); assay: Relative organ wet weights and body weight, therapy-study; settings: month 20, mean ±SEM
# Method: as §1
# (§2) After the hearts all other relevant inner organs (e.g., lung, liver, spleen, kidneys, brain, and eyes) were removed, rinsed with ice-cold PBS, weighed, sectioned, and fixed for further histologic analysis.
# [5] = tested on: brain, liver, heart, kidney, eye, and spleen; assay: Histologic analysis of organs for treatment-related pathologies; settings: therapy-study, after 12 months of treatment; H&E-stained sections (S3 Fig.)
# Text: as §2
# Supplementary file pone.0117589.s003.tif: S3 Fig Histologic analysis of various organs (therapy-study, mono-treatment). Representative H&E-stained 2μm cross-sections from various organs analyzed for treatment-related pathologies. Panels (from top to bottom) show organs analyzed from immunised anti-β1EC2-positive untreated, β1EC2-CP-treated, or bisoprolol-treated rats. […] (TIF) Click here for additional data file.
# cardiac β1-ARs = assay: Radioligand binding of cardiac membranes (125I-CYP); type: in vivo, Lewis/CrlBR rats; settings: 125I-cyanopindolol binding to cardiac membranes, CGP20712A competition (Fig. 4A and B)
# Method: Membranes from apical cardiac tissues from rats of each study-group were prepared as previously described. To determine total β-AR density (Bmax), 35μg membrane protein were incubated (1.5 h, 25°C) in binding buffer with 200pM of the non-selective β-AR antagonist ^125I-cyanopindolol (^125I-CYP; Perkin Elmer Life and Analytical Sciences, Billerica, MA). Non-specific binding was determined with 5μM unlabeled L-propranolol. The proportion of β1- and β2-AR subtypes was estimated from biphasic competition-curves with 10^-10 to 10^-2 M of the unlabeled β1-selective antagonist CGP20712A (Sigma). The reaction was stopped by rapid filtration (Whatman GF/C filters) and washing with ice-cold buffer. Filter-bound radioactivity was measured by γ-counting. Estimates of maximal binding (Bmax) and the proportion of β1- and β2-AR-subtypes were calculated with GraphPad Prism 5.00 (San Diego, CA).
# Fig 4 Cardiac adrenergic system and molecular markers. […] Columns ± error bars represent the level of expression of the indicated markers ±SEM in cardiac tissues from the indicated treatment-groups compared to values from 0.9% NaCl-injected rats (controls, set at 100%), as determined by qRT-PCR normalised to GAPDH (one way ANOVA and Dunnett`s post-hoc test; *p<0.05; **p<0.001).
# [6] = immunised anti-β1EC2-positive rats, from 8.5 months after 1st immunisation peptides 1.0 mg/kg i.v. every 4 weeks, bisoprolol 15 mg/kg/day orally, over 12 months
# [7] = non-immunised 0.9% NaCl-injected rats, EC2-CP 1.0 mg/kg i.v. every 4 weeks or bisoprolol 15 mg/kg/day orally over 12 months
compound,measurement,setting,value
CC(C)[C@H](NC(=O)[C@H](Cc1ccccc1)NC(=O)[C@H](CC(=O)O)NC(=O)[C@H](CS)NC(=O)[C@H](CS)NC(=O)[C@H](CCCCN)NC(=O)[C@@H]1CCCN1C(=O)[C@H](CC(=O)O)NC(=O)[C@H](CC(N)=O)NC(=O)[C@H](Cc1ccc(O)cc1)NC(=O)[C@H](CS)NC(=O)[C@H](CCCNC(=N)N)NC(=O)[C@H](CCCNC(=N)N)NC(=O)[C@H](C)NC(=O)[C@H](CCC(=O)O)NC(=O)[C@H](CC(=O)O)NC(=O)[C@H](CO)NC(=O)[C@H](CCC(=O)O)NC(=O)[C@H](C)NC(=O)[C@H](CCCNC(=N)N)NC(=O)[C@H](C)N)C(=O)N[C@H](C(=O)N[C@@H](CC(N)=O)C(=O)N[C@@H](CCCNC(=N)N)C(=O)NCC(N)=O)[C@@H](C)O [β1EC2-Lin] (H-ARAESDEARRCYNDPKCCDFVTNRG-NH2; N-terminus and C-terminus assumed),"effect on anti-β1EC2-titers, in words","anti-β1EC2-antibodies; peptides 1.0 mg/kg/month i.v., bisoprolol 15 mg/kg/day orally (S1 Fig., Fig. 2F)",only negligible effects
same,"cardiomyopathic phenotype, in words",[1],failed to elicit any cardiopotective effects
same,IVS (thickness of the inter-ventricular septum),[2]; [6],1.5 ±0.1 mm
same,LVA (total LV-area),[2]; [6],71.2 ±3.5 mm2
same,LVCA (LV-cavity area),[2]; [6],32.7 ±1.3 mm2
same,LVWA (LV wall area),[2]; [6],38.5 ±2.4 mm2
same,PW (posterior wall thickness),[2]; [6],1.6 ±0.1 mm
same,-dP/dt (relaxation),[3]; [6],4857 ±157 mmHg/s
same,HF (heart frequence),[3]; [6],210 ±6 bpm
same,LVEDP (LV end-diastolic pressure),[3]; [6],14.5 ±1.2 mmHg
same,LVSP (maximal systolic LV-pressure),[3]; [6],116 ±4 mmHg
same,"Heart, relative (wet) weight",[4]; [6],2.88 ± 0.24 mg/g
same,"Kidney L, relative (wet) weight",[4]; [6],2.32 ± 0.14 mg/g
same,"Kidney R, relative (wet) weight",[4]; [6],2.36 ± 0.20 mg/g
same,"Liver, relative (wet) weight",[4]; [6],22.64 ± 0.59 mg/g
same,"Lung, relative (wet) weight",[4]; [6],2.77 ± 0.12 mg/g
same,"Spleen, relative (wet) weight",[4]; [6],1.49 ± 0.09 mg/g
same,Weight (body weight),[4]; [6],598 ± 38 g
CC(C)[C@@H]1NC(=O)[C@H](Cc2ccccc2)NC(=O)[C@H](CC(=O)O)NC(=O)[C@H](CS)NC(=O)[C@H](CS)NC(=O)[C@H](CCCCN)NC(=O)[C@@H]2CCCN2C(=O)[C@H](CC(=O)O)NC(=O)[C@H](CC(N)=O)NC(=O)[C@H](Cc2ccc(O)cc2)NC(=O)[C@H](CS)NC(=O)[C@H](CCCNC(=N)N)NC(=O)[C@H](CCCNC(=N)N)NC(=O)[C@H](C)NC(=O)[C@H](CCC(=O)O)NC(=O)[C@H](CC(=O)O)NC(=O)[C@H](CO)NC(=O)[C@H](CCC(=O)O)NC(=O)[C@H](C)NC(=O)[C@H](CCCNC(=N)N)NC(=O)[C@H](C)NC(=O)[C@H](CCC(N)=O)NC(=O)CNC(=O)[C@H](CCCNC(=N)N)NC(=O)[C@H](CC(N)=O)NC(=O)[C@H]([C@@H](C)O)NC1=O [β1EC2-CP] (cyclo(AESDEARRCYNDPKCCDFVTNRGQAR)),decline in anti-β1EC2-titers,anti-β1EC2-antibodies; after 4–5 injections,> 90%
same,decline in anti-β1EC2-titers,anti-β1EC2-antibodies; after two injections,> 70%
same,steady state antibody-levels in % of the titers at initiation of therapy,anti-β1EC2-antibodies; despite monthly antigen-boosts,less than 15%
same,"treatment-related organ pathologies / organ-toxicity, in words",[5],no β1EC2-CP-related pathologies were noted; also recorded: Neither treatment strategy caused detectable organ-specific toxicity
same,"cardiomyopathic phenotype, in words",[1],almost fully reversed
same,IVS (thickness of the inter-ventricular septum),[2]; [6],1.7 ±0.1 mm
same,LVA (total LV-area),[2]; [6],65.2 ±2.5 mm2
same,LVCA (LV-cavity area),[2]; [6],25.6 ±1.0 mm2
same,LVWA (LV wall area),[2]; [6],39.6 ±1.7 mm2
same,PW (posterior wall thickness),[2]; [6],1.8 ±0.1 mm
same,IVS (thickness of the inter-ventricular septum),[2]; [7],1.7 ±0.1 mm
same,LVA (total LV-area),[2]; [7],57.4 ±0.7 mm2
same,LVCA (LV-cavity area),[2]; [7],21.3 ±0.1 mm2
same,LVWA (LV wall area),[2]; [7],36.1 ±0.7 mm2
same,PW (posterior wall thickness),[2]; [7],1.9 ±0.1 mm
same,"cardiac β1-AR density (downregulation), in words",cardiac β1-ARs,largely prevented
same,-dP/dt (relaxation),[3]; [6],5228 ±166 mmHg/s
same,HF (heart frequence),[3]; [6],217 ±3 bpm
same,LVEDP (LV end-diastolic pressure),[3]; [6],10.0 ± 1.0 mmHg
same,LVSP (maximal systolic LV-pressure),[3]; [6],126 ±4 mmHg
same,-dP/dt (relaxation),[3]; [7],5502 ±248 mmHg/s
same,HF (heart frequence),[3]; [7],221 ±7 bpm
same,LVEDP (LV end-diastolic pressure),[3]; [7],9.2 ± 1.1 mmHg
same,LVSP (maximal systolic LV-pressure),[3]; [7],121 ±8 mmHg
same,"Heart, relative (wet) weight",[4]; [6],2.20 ± 0.09 mg/g
same,"Kidney L, relative (wet) weight",[4]; [6],2.29 ± 0.06 mg/g
same,"Kidney R, relative (wet) weight",[4]; [6],2.25 ± 0.05 mg/g
same,"Liver, relative (wet) weight",[4]; [6],19.83 ± 0.50 mg/g
same,"Lung, relative (wet) weight",[4]; [6],2.26 ± 0.16 mg/g
same,"Spleen, relative (wet) weight",[4]; [6],1.23 ± 0.04 mg/g
same,Weight (body weight),[4]; [6],673 ± 12 g
same,"Heart, relative (wet) weight",[4]; [7],2.15 ± 0.08 mg/g
same,"Kidney L, relative (wet) weight",[4]; [7],2.19 ± 0.08 mg/g
same,"Kidney R, relative (wet) weight",[4]; [7],2.22 ± 0.08 mg/g
same,"Liver, relative (wet) weight",[4]; [7],18.9 ± 0.55 mg/g
same,"Lung, relative (wet) weight",[4]; [7],2.08 ± 0.07 mg/g
same,"Spleen, relative (wet) weight",[4]; [7],1.18 ± 0.03 mg/g
same,Weight (body weight),[4]; [7],695 ± 27 g
